Values of other authors as cited in US6251620A, “Three dimensional structure of a ZAP tyrosine protein kinase fragment and modeling methods” (priority 1997, dated 2001).
Non-standard residues stand in square brackets, D forms with d. pY = N[C@@H](Cc1ccc(OP(=O)(O)O)cc1)C(=O)O; Nle = CCCC[C@H](N)C(=O)O

Columns and labels:
BDF1 mice = BDF1 mice given DBA/2 spleen:lymph node cells; usable as positive controls
MRL/Ipr-mice = details: SLE
ZAP-NC = details: in vitro binding of ZAP-NC with synthetic phosphopeptides (ref. 25)

| Molecule | activity in CGVHD model (BDF1 mice) | binding hierarchy (ZAP-NC) | further results |
| --- | --- | --- | --- |
| C=CC[C@@H]1/C=C(\C)C[C@H](C)C[C@H](OC)[C@H]2O[C@@](O)(C(=O)C(=O)N3CCCC[C@H]3C(=O)O[C@H](/C(C)=C/[C@@H]3CC[C@@H](O)[C@H](OC)C3)[C@H](C)[C@@H](O)CC1=O)[C@H](C)C[C@@H]2OC [FK506] | active in this model |  | side effects (kidney and central nervous system): serious side effects in the kidney and central nervous system; kidney toxicity (patients receiving FK506, in some cases kidney transplant required after the liver transplant): severe kidney toxicity has been observed |
| C[C@]12C=CC(=O)C=C1CC[C@@H]1[C@@H]2[C@@H](O)C[C@@]2(C)[C@H]1CC[C@]2(O)C(=O)CO [prednisolone] | active in this model |  |  |
| O=P1(N(CCCl)CCCl)NCCCO1 (centres unmarked) [cyclophosphamide] | active in this model |  | effect on course of disease (MRL/Ipr-mice): can prevent and reverse the course of disease |
| Ac.Asp.Gly.Leu.pTyr.Gln.Gly.Leu.Ser.Thr.Ala.Thr.Lys.Asp.Thr.pTyr.Asp.Ala.Leu.His.NH2 (Ac-DGL[pY]QGLSTATKDT[pY]DALH-NH2; SMILES CC(=O)N[C@@H](CC(=O)O)C(=O)NCC(=O)N[C@@H](CC(C)C)C(=O)N[C@@H](Cc1ccc(OP(=O)(O)O)cc1)C(=O)N[C@@H](CCC(N)=O)C(=O)NCC(=O)N[C@@H](CC(C)C)C(=O)N[C@@H](CO)C(=O)N[C@H](C(=O)N[C@@H](C)C(=O)N[C@H](C(=O)N[C@@H](CCCCN)C(=O)N[C@@H](CC(=O)O)C(=O)N[C@H](C(=O)N[C@@H](Cc1ccc(OP(=O)(O)O)cc1)C(=O)N[C@@H](CC(=O)O)C(=O)N[C@@H](C)C(=O)N[C@@H](CC(C)C)C(=O)N[C@@H](Cc1c[nH]cn1)C(N)=O)[C@@H](C)O)[C@@H](C)O)[C@@H](C)O) [Ligand 7] |  | .zeta.1 =.zeta.2 >ε=.zeta.3 |  |
| Ac.Gly.Leu.pTyr.Asn.Glu.Leu.Gln.Lys.Asp.Lys.Nle.Ala.Glu.Ala.pTyr.Ser.Glu.Ile.Gly.NH2 (Ac-GL[pY]NELQKDK[Nle]AEA[pY]SEIG-NH2; SMILES CCCC[C@H](NC(=O)[C@H](CCCCN)NC(=O)[C@H](CC(=O)O)NC(=O)[C@H](CCCCN)NC(=O)[C@H](CCC(N)=O)NC(=O)[C@H](CC(C)C)NC(=O)[C@H](CCC(=O)O)NC(=O)[C@H](CC(N)=O)NC(=O)[C@H](Cc1ccc(OP(=O)(O)O)cc1)NC(=O)[C@H](CC(C)C)NC(=O)CNC(C)=O)C(=O)N[C@@H](C)C(=O)N[C@@H](CCC(=O)O)C(=O)N[C@@H](C)C(=O)N[C@@H](Cc1ccc(OP(=O)(O)O)cc1)C(=O)N[C@@H](CO)C(=O)N[C@@H](CCC(=O)O)C(=O)N[C@H](C(=O)NCC(N)=O)[C@@H](C)CC) [Ligand 6] |  | .zeta.1 =.zeta.2 >ε=.zeta.3 |  |
| Cc1oncc1C(=O)Nc1ccc(C(F)(F)F)cc1 [leflunomide] | active in this model |  | effect on course of disease (MRL/Ipr-mice): can prevent and reverse the course of disease |
| Ac.Asn.Gln.Leu.pTyr.Asn.Glu.Leu.Asn.Leu.Gly.Arg.Arg.Glu.Glu.pTyr.Asp.Val.Leu.Asp.NH2 [Ligand 5] |  | .zeta.1 =.zeta.2 >ε=.zeta.3 |  |
